Where no end group is shown, it is not given here. [ ]: non-standard residue; d: D form. The star is where a group is joined. AOA = aminooxyacetyl (N-terminus modified with aminooxyacetamide), NOCC(=O)*; pY = N[C@@H](Cc1ccc(OP(=O)(O)O)cc1)C(=O)O

The target in this assay is corresponding anti-peptide antibody. Briefly: Dissociation constants (KD) between peptide and its corresponding antibody, ForteBio instrument. In kind it is binding, rabbit. An excerpt:
Goat anti-mouse and goat anti-rabbit antibodies were purchased from ImmunoReagents, Inc. (Raleigh, NC). Rabbit monoclonal anti-estrogen receptor (ER), anti-progesterone receptor (PR) and anti-HER2/neu receptor (HER2) antibodies were purchased from Epitomics, Inc. (Fremont, CA). Mouse anti-Ki67 was purchased from BD Biosciences, San Diego, CA Rabbit monoclonal anti-peptide antibodies against PEP1, PEP2, PEP3, PEP4, and PEP5 were obtained from AvantGen, Inc. (San Diego, CA).
The “AOA” group (aminooxyacetamide) was used to attach the peptide to the 4FB-modified primary antibody. Also shown in Table 1 are the dissociation constants (KD) between peptide and its corresponding antibody. These values were obtained using a ForteBio instrument (www.fortebio.com).
On to “AOA-DATNVGDEGGFAPNILENK ({AOA}-DATNVGDEGGFAPNILENK) [PEP3]”, for which the Kd amounted to 0.09 nM.
To “AOA-DITSDTSGDFR ({AOA}-DITSDTSGDFR) [PEP2]” belongs 0.16 nM; to “AOA-ETSGLQEQRNHLQGK-NH2 (HELM PEPTIDE1{[NOCC(=O)[*:2]].E.T.S.G.L.Q.E.Q.R.N.H.L.Q.G.K.[am]}$$$$V2.0; SMILES CC(C)C[C@H](NC(=O)CNC(=O)[C@H](CO)NC(=O)[C@@H](NC(=O)[C@H](CCC(=O)O)NC(=O)CON)[C@@H](C)O)C(=O)N[C@@H](CCC(N)=O)C(=O)N[C@@H](CCC(=O)O)C(=O)N[C@@H](CCC(N)=O)C(=O)N[C@@H](CCCNC(=N)N)C(=O)N[C@@H](CC(N)=O)C(=O)N[C@@H](Cc1c[nH]cn1)C(=O)N[C@@H](CC(C)C)C(=O)N[C@@H](CCC(N)=O)C(=O)NCC(=O)N[C@@H](CCCCN)C(N)=O) [PEP6]”, 0.02 nM; to “AOA-GLEPGQEYNVLLTAEK ({AOA}-GLEPGQEYNVLLTAEK) [PEP4]”, 0.09 nM.
“AOA-LALQAQPVPDELVTK ({AOA}-LALQAQPVPDELVTK) [PEP1]” registered a Kd of 0.09 nM.
The figure for “AOA-RPHFPQF-pY-SASGTA ({AOA}-RPHFPQF[pY]SASGTA) [PEP5]” is 0.04 nM.

The values above are taken from patent US11867696B2, “Antigen-coupled immunoreagents” (CELL IDX, INC., priority 2015, dated 2024).
